From ChEMBL document CHEMBL1201862, “PubChem BioAssay data set” (2004) come the findings set out here.

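These data come from cells grown in 96-well plates and exposed to compound for 48 hours at five concentrations. Abbreviation: GI50, concentration required for 50% inhibition of growth.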 The source made the active and inactive calls. Rule as the data show it: active = GI50 up to about 1.1 µM and inactive = higher. Where a SMILES comes first, the peptide text is derived from it. [ ]: non-standard residue; d: D form. The star is where a group is joined. ξ: configuration not given here. ξD = NC(CC(=O)O)C(=O)O; Ac3c = NC1(C(=O)O)CC1; Boc = CC(C)(C)OC(=O)*; OBn = c1ccc(CO*)cc1

Some test systems named below: 786-0; CAKI-1; HCT-116; Hs-578T; KM12; NCI-H226; NCI-H23; NCI/ADR-RES; OVCAR-4; OVCAR-8; RXF 393; SK-MEL-2; SK-MEL-5; SK-OV-3; SNB-19; SNB-75; T47D; UO-31; HL-60; SR.
Test in all cases: NCI-60 cell line screen, 48 h

For `COC(=O)C1(NC(=O)C(CC(=O)OCc2ccccc2)NC(=O)OC(C)(C)C)CC1` (stereo not given) (Boc-[ξD](OBn)-[Ac3c]-OMe), the GI50 in the assay with 786-0, in the assay with CAKI-1, in the assay with HCT-116, in the assay with Hs-578T, in the assay with KM12 and in the assay on NCI-H226 was > 100 µM (inactive) each time. Besides, the GI50 in the assay on NCI-H23, in the assay on NCI/ADR-RES, in the assay with OVCAR-4, with OVCAR-8, in the assay with RXF 393 and with SK-MEL-2 was > 100 µM (inactive) in each case. Further, the GI50 in the assay with SK-MEL-5 is > 100 µM (inactive); in the assay on SK-OV-3, 19.6 µM (inactive); in the assay on SNB-19, > 100 µM (inactive); in the assay with SNB-75 it was > 100 µM (inactive); with T47D, > 100 µM (inactive); in the assay on UO-31, > 100 µM (inactive).
For `CC1=CCCC(C)(O)C2CC(CCC3(C)OC3CC1)C(C)C(=O)O2` (stereo not given), the GI50 with 786-0, with CAKI-1, with HCT-116, with HL-60, in the assay on Hs-578T and with KM12 was > 100 µM (inactive) in each case. The GI50 in the assay on NCI-H226, in the assay with NCI-H23, in the assay on NCI/ADR-RES, with OVCAR-4, in the assay on OVCAR-8 and with SK-MEL-2 was > 100 µM (inactive) in each case. The GI50 in the assay with SK-MEL-5, in the assay on SK-OV-3, in the assay on SNB-19, with SNB-75, in the assay with T47D and with UO-31 was > 100 µM (inactive) each time.
As to `CSc1nc(=S)[nH]c2c1c(C)nn2-c1ccccc1`, the GI50 is 24.3 µM (inactive) in the assay on 786-0; 21.2 µM (inactive) in the assay with CAKI-1; 17.8 µM (inactive) with HCT-116; 28.1 µM (inactive) in the assay on HL-60; 38 µM (inactive) in the assay with Hs-578T; 17.7 µM (inactive) in the assay on NCI-H226. The GI50 is 17.6 µM (inactive) in the assay on NCI-H23; 17.2 µM (inactive) in the assay with OVCAR-4; 26.2 µM (inactive) in the assay on RXF 393; 22.8 µM (inactive) in the assay with SK-MEL-2; 13.1 µM (inactive) in the assay with SK-MEL-5; 24.8 µM (inactive) in the assay with SK-OV-3. Further, the GI50 with SNB-19 is 23.3 µM (inactive); with SR it was 11.2 µM (inactive); in the assay on T47D, 19.1 µM (inactive); with UO-31 it was 22 µM (inactive).
For the molecule `Cc1nnc2sc(NN)nn12`, the GI50 in the assay on 786-0, in the assay with CAKI-1, in the assay on HCT-116, in the assay on Hs-578T, with KM12 and in the assay on NCI-H226 was > 100 µM (inactive) throughout. Also, the GI50 in the assay with NCI-H23, in the assay with NCI/ADR-RES, in the assay with OVCAR-4, in the assay with OVCAR-8, in the assay with RXF 393 and with SK-MEL-2 was > 100 µM (inactive) throughout. In addition, the GI50 in the assay on SK-MEL-5, in the assay with SK-OV-3, with SNB-19, in the assay on SNB-75, in the assay with T47D and in the assay on UO-31 was > 100 µM (inactive) each time.
Consider `O=C(/C=C/c1ccc(O)cc1)c1cc(O)cc(O)c1`, for which the GI50 in the assay with 786-0 is 16.6 µM (inactive); in the assay with CAKI-1 it was 14.4 µM (inactive); in the assay with HCT-116 it was 13.2 µM (inactive); with HL-60, 1.92 µM (inactive); with Hs-578T it was 29.9 µM (inactive); with NCI-H226, 24.1 µM (inactive). The GI50 in the assay on NCI-H23 is 20.5 µM (inactive); in the assay on NCI/ADR-RES, 18.9 µM (inactive); with OVCAR-4, 20.6 µM (inactive); in the assay on OVCAR-8, 13.4 µM (inactive); in the assay with RXF 393 it was 15.8 µM (inactive); in the assay with SK-MEL-2, 18.1 µM (inactive). In addition, the GI50 in the assay on SK-MEL-5 was 15.5 µM (inactive); with SK-OV-3 it was 18.2 µM (inactive); in the assay with SNB-19, 16.7 µM (inactive); with SNB-75 it was 17.6 µM (inactive); in the assay on T47D it was 14.6 µM (inactive); in the assay with UO-31 it was 10 µM (inactive).
On to `NCCNC(=S)S`, for which the GI50 in the assay on 786-0 is 33.8 µM (inactive); with CAKI-1, > 100 µM (inactive); in the assay on HCT-116 it was > 100 µM (inactive); in the assay with HL-60, 44.7 µM (inactive); in the assay on Hs-578T it was 7.31 µM (inactive); with KM12, > 100 µM (inactive). The GI50 in the assay with NCI-H226 was > 100 µM (inactive); in the assay on NCI-H23 it was > 100 µM (inactive); in the assay with NCI/ADR-RES it was > 100 µM (inactive); in the assay with OVCAR-4 it was > 100 µM (inactive); with OVCAR-8 it was 57.5 µM (inactive); in the assay on RXF 393 it was > 100 µM (inactive). Also, the GI50 with SK-MEL-2, in the assay with SK-MEL-5, in the assay with SK-OV-3, in the assay with SNB-19, in the assay on SNB-75 and in the assay on T47D was > 100 µM (inactive) each time. In addition, the GI50 in the assay on UO-31 is > 100 µM (inactive).
In the case of `COc1cccc2c1C(=O)c1c(O)c3c(c(O)c1C2=O)C[C@@](O)(/C(C)=N\O)C[C@@H]3OC1CC(N)C(O)C(C)O1` (stereo not given in full), the GI50 with 786-0 is 1.06 µM (active); in the assay on CAKI-1, 1.93 µM (inactive); in the assay on HCT-116, 0.883 µM (active); in the assay with HL-60, 0.218 µM (active); in the assay on Hs-578T, 1.77 µM (inactive); in the assay with KM12 it was 2.39 µM (inactive). For the same molecule, the GI50 is 1.81 µM (inactive) in the assay on NCI-H226; 1.26 µM (inactive) with NCI-H23; 4.46 µM (inactive) with OVCAR-4; 1.15 µM (inactive) in the assay with OVCAR-8; 1.41 µM (inactive) with RXF 393; 1.1 µM (active) in the assay with SK-MEL-2. Also, the GI50 in the assay on SK-MEL-5 was 0.643 µM (active); in the assay on SK-OV-3 it was 2.23 µM (inactive); in the assay on SNB-19, 0.78 µM (active); in the assay with SNB-75, 0.501 µM (active); in the assay with SR, 0.0615 µM (active); with T47D, 0.723 µM (active). The GI50 in the assay with UO-31 is 10 µM (inactive).
In the case of `Cc1ccc(/C=N/NC2=NCCN2)s1`, the GI50 with 786-0, in the assay with CAKI-1, in the assay with HCT-116, in the assay with HL-60, in the assay with Hs-578T and with KM12 was > 100 µM (inactive) each time. Besides, the GI50 is 79.4 µM (inactive) with NCI-H226; > 100 µM (inactive) in the assay on NCI-H23; > 100 µM (inactive) with NCI/ADR-RES; > 100 µM (inactive) with OVCAR-4; > 100 µM (inactive) in the assay on OVCAR-8; > 100 µM (inactive) in the assay on RXF 393. For the same molecule, the GI50 in the assay on SK-MEL-2, with SK-MEL-5, in the assay on SK-OV-3, with SNB-19, in the assay on SNB-75 and in the assay with T47D was > 100 µM (inactive) each time. Also, in the assay with UO-31, the GI50 is 44.9 µM (inactive).
For the molecule `O=S(=O)(O)C(Cc1nc2ccccc2[nH]1)S(=O)(=O)OCCC1S(=O)(=O)OCCOS1(=O)=O` (stereo not given), the GI50 in the assay with 786-0, in the assay on CAKI-1, in the assay on HCT-116, in the assay on HL-60, in the assay with Hs-578T and in the assay on KM12 was > 100 µM (inactive) in each case. For the same molecule, the GI50 in the assay on NCI-H226, in the assay on NCI-H23, with NCI/ADR-RES, in the assay with OVCAR-4, with OVCAR-8 and in the assay on RXF 393 was > 100 µM (inactive) in each case. The GI50 in the assay with SK-MEL-2, in the assay on SK-MEL-5, in the assay with SK-OV-3, with SNB-19, in the assay on SNB-75 and in the assay with T47D was > 100 µM (inactive) each time. Also, the GI50 in the assay on UO-31 is > 100 µM (inactive).
Consider `O=C(CSCC(=O)N/N=C/c1ccc2c(c1)OCO2)N/N=C/c1ccc2c(c1)OCO2`, for which the GI50 with 786-0 was > 100 µM (inactive); in the assay on CAKI-1, > 100 µM (inactive); in the assay on HCT-116, 85.7 µM (inactive); in the assay on HL-60 it was 58.9 µM (inactive); in the assay with Hs-578T it was > 100 µM (inactive); with KM12, > 100 µM (inactive). Moreover, the GI50 is 40.2 µM (inactive) in the assay with NCI-H226; 27 µM (inactive) in the assay with NCI-H23; > 100 µM (inactive) in the assay with NCI/ADR-RES; > 100 µM (inactive) in the assay on OVCAR-4; 49 µM (inactive) in the assay with OVCAR-8; > 100 µM (inactive) in the assay with RXF 393. The GI50 in the assay on SK-MEL-2 was > 100 µM (inactive); with SK-MEL-5, 24.2 µM (inactive); with SK-OV-3, > 100 µM (inactive); in the assay with SNB-19 it was > 100 µM (inactive); with SNB-75, > 100 µM (inactive); with T47D, 55.5 µM (inactive). In the assay with UO-31, the GI50 is > 100 µM (inactive).
As for `Cc1cc2c(c(C)c1O)C(C)(C)CN2C(=O)C(C)(C)C`, the GI50 was > 100 µM (inactive) in the assay with 786-0; 84.7 µM (inactive) in the assay with HCT-116; 77.4 µM (inactive) in the assay on HL-60; > 100 µM (inactive) in the assay on Hs-578T; > 100 µM (inactive) in the assay with KM12; 26.1 µM (inactive) in the assay with NCI-H226. Moreover, the GI50 is 42.5 µM (inactive) in the assay with NCI-H23; 16.5 µM (inactive) with NCI/ADR-RES; 54.1 µM (inactive) in the assay with OVCAR-4; > 100 µM (inactive) with OVCAR-8; 22.7 µM (inactive) in the assay with RXF 393; 25.1 µM (inactive) in the assay on SK-MEL-5. Moreover, the GI50 was > 100 µM (inactive) in the assay on SK-OV-3; > 100 µM (inactive) in the assay on SNB-19; 28 µM (inactive) in the assay on SNB-75; 56.5 µM (inactive) in the assay on T47D; 74.5 µM (inactive) in the assay on UO-31.
